Test results taken from patent US12679843B2, “Pyrrolopyrimidine amines as complement inhibitors” (BioCryst Pharmaceuticals, Inc., priority 2020, dated 2026).

Each compound was assayed against Factor D (Homo sapiens, UniProt P00746) (assay: Factor D esterolytic assay (Z-Lys-SBzl thioester substrate, DTNB, 405 nm)). Conditions: substrate Z-Lys-SBzl 1.29 mM, 100 mM HEPES, 500 mM NaCl, pH 7.5, 10% DMSO, tested a minimum of three times.
Format: biochemical
In short: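 Human Factor D hydrolysis of Z-Lys-SBzl (1.29 mM) monitored at 405 nm via DTNB thiol detection for 600 s, 690 nm background subtracted. Buffer 100 mM HEPES, 500 mM NaCl, pH 7.5, 10% DMSO; substrate added immediately or after room-temperature preincubation. IC50 from percent inhibition of rate, at least three tests.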

Chain of Factor D (P00746 26-253): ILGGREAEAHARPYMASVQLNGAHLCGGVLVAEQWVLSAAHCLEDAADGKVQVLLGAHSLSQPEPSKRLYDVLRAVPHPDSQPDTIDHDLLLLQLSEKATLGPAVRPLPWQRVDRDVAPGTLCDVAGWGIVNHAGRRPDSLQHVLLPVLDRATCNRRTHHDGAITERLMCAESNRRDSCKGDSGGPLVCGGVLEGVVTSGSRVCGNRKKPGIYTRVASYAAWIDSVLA

Row | Compound | IC50
1 | Cc1cn(CC(=O)N2C[C@H](F)C[C@H]2C(=O)NCc2cccc(Cl)c2F)c2ncnc(N)c12 [Compound 150d, (2S,4R)-1-(2-(4-amino-5-methyl-7H-pyrrolo[2,3-d]pyrimidin-7-yl)acetyl)-N-(3-chloro-2-fluorobenzyl)-4-fluoropyrrolidine-2-carboxamide] | 100 to 1000 nM
2 | Nc1ncnc2c1c1cc(C(F)(F)F)ccc1n2CC(=O)N1C[C@H](F)C[C@H]1C(=O)Nc1cccc(Br)n1 [Compound 26a, (2S,4R)-1-(2-(4-amino-6-(trifluoromethyl)-9H-pyrimido[4,5-b]indol-9-yl)acetyl)-N-(6-bromopyridin-2-yl)-4-fluoropyrrolidine-2-carboxamide] | < 100 nM
3 | Nc1ncnc2c(CC(=O)N3C[C@H](F)C[C@H]3C(=O)NCc3cccc(Cl)c3F)cccc12 [Compound 138d, (2S,4R)-1-(2-(4-aminoquinazolin-8-yl)acetyl)-N-(3-chloro-2-fluorobenzyl)-4-fluoropyrrolidine-2-carboxamide] | 100 to 1000 nM
4 | C[C@@]12C[C@@H](C(=O)Nc3cccc(Br)n3)N(C(=O)Cn3c4cc(Br)ccc4c4c(N)ncnc43)[C@@H]1C2 [Compound 200a, (1R,3S,5R)-2-(2-(4-amino-7-bromo-9H-pyrimido[4,5-b]indol-9-yl)acetyl)-N-(6-bromopyridin-2-yl)-5-methyl-2-azabicyclo[3.1.0]hexane-3-carboxamide] | < 100 nM
5 | CC1(C)CC(O)CC(NC(=O)[C@@H]2C[C@H]3C[C@H]3N2C(=O)Cn2cnc3c(N)ncnc32)C1 (mixture of isomers) [Compound 106b, (1R,3S,5R)-2-(2-(6-amino-9H-purin-9-yl)acetyl)-N-(5-hydroxy-3,3-dimethylcyclohexyl)-2-azabicyclo[3.1.0]hexane-3-carboxamide] | > 1000 nM
6 | Nc1ncnc2c1c(-c1ccc3[nH]ccc3c1)cn2CC(=O)N1C[C@H](F)C[C@H]1C(=O)NCc1cccc(Cl)c1F [Compound 139b, (2S,4R)-1-(2-(4-amino-5-(1H-indol-5-yl)-7H-pyrrolo[2,3-d]pyrimidin-7-yl)acetyl)-N-(3-chloro-2-fluorobenzyl)-4-fluoropyrrolidine-2-carboxamide] | < 100 nM
7 | Cc1cccc2c1c1c(N)ncnc1n2CC(=O)N1[C@@H]2C[C@@H]2C[C@H]1C(=O)Nc1cccc(Br)n1 [Compound 56g, (1R,3S,5R)-2-(2-(4-amino-5-methyl-9H-pyrimido[4,5-b]indol-9-yl)acetyl)-N-(6-bromopyridin-2-yl)-2-azabicyclo[3.1.0]hexane-3-carboxamide] | 100 to 1000 nM
8 | COc1cccc2c1c1c(N)ncnc1n2CC(=O)N1[C@@H]2C[C@@H]2C[C@H]1C(=O)Nc1cccc(Br)n1 [Compound 57g, (1R,3S,5R)-2-(2-(4-amino-5-methoxy-9H-pyrimido[4,5-b]indol-9-yl)acetyl)-N-(6-bromopyridin-2-yl)-2-azabicyclo[3.1.0]hexane-3-carboxamide] | < 100 nM
9 | Cc1ncc(-c2cn(CC(=O)N3C[C@H](F)C[C@H]3C(=O)NCc3cccc(Cl)c3F)c3ncnc(N)c23)cn1 [Compound 117d, (2S,4R)-1-(2-(4-amino-5-(2-methylpyrimidin-5-yl)-7H-pyrrolo[2,3-d]pyrimidin-7-yl)acetyl)-N-(3-chloro-2-fluorobenzyl)-4-fluoropyrrolidine-2-carboxamide] | 100 to 1000 nM
10 | C[C@@]12C[C@@H](C(=O)Nc3cccc(Br)n3)N(C(=O)Cn3c4ccc(O)cc4c4c(N)ncnc43)[C@@H]1C2 [Compound 164a, (1R,3S,5R)-2-(2-(4-amino-6-hydroxy-9H-pyrimido[4,5-b]indol-9-yl)acetyl)-N-(6-bromopyridin-2-yl)-5-methyl-2-azabicyclo[3.1.0]hexane-3-carboxamide] | < 100 nM
11 | Cc1cc(C(F)(F)F)cc2c3c(N)ncnc3n(CC(=O)N3[C@@H]4C[C@@H]4C[C@H]3C(=O)Nc3cccc(Br)n3)c12 [Compound 194a, (1R,3S,5R)-2-(2-(4-amino-8-methyl-6-(trifluoromethyl)-9H-pyrimido[4,5-b]indol-9-yl)acetyl)-N-(6-bromopyridin-2-yl)-2-azabicyclo[3.1.0]hexane-3-carboxamide] | < 100 nM
12 | COC(=O)c1ccc2c(c1)c1c(N)ncnc1n2CC(=O)N1[C@@H]2C[C@@H]2C[C@H]1C(=O)Nc1cccc(Br)n1 [Compound 39f, methyl 4-amino-9-(2-((1R,3S,5R)-3-((6-bromopyridin-2-yl)carbamoyl)-2-azabicyclo[3.1.0]hexan-2-yl)-2-oxoethyl)-9H-pyrimido[4,5-b]indole-6-carboxylate] | < 100 nM
13 | Nc1c(C=O)cnc2c1ccn2CC(=O)N1[C@@H]2C[C@@H]2C[C@H]1C(=O)Nc1cccc(Br)n1 [Compound 156e, (1R,3S,5R)-2-(2-(4-amino-5-formyl-1H-pyrrolo[2,3-b]pyridin-1-yl)acetyl)-N-(6-bromopyridin-2-yl)-2-azabicyclo[3.1.0]hexane-3-carboxamide] | 100 to 1000 nM

Results, then the compound that gave them:

Row | IC50 | Compound
14 | < 100 nM | COc1cc(F)cc2c3c(N)ncnc3n(CC(=O)N3[C@H](C(=O)Nc4cccc(Br)n4)C[C@@]4(C)C[C@@H]34)c12 [Compound 281a, (1R,3S,5R)-2-(2-(4-amino-6-fluoro-8-methoxy-9H-pyrimido[4,5-b]indol-9-yl)acetyl)-N-(6-bromopyridin-2-yl)-5-methyl-2-azabicyclo[3.1.0]hexane-3-carboxamide]
15 | < 100 nM | C[C@@]12C[C@@H](C(=O)Nc3cccc(Br)n3)N(C(=O)Cn3c4cc(F)c(Br)cc4c4c(N)ncnc43)[C@@H]1C2 [Compound 390a, (1R,3S,5R)-2-(2-(4-amino-6-bromo-7-fluoro-9H-pyrimido[4,5-b]indol-9-yl)acetyl)-N-(6-bromopyridin-2-yl)-5-methyl-2-azabicyclo[3.1.0]hexane-3-carboxamide]
16 | < 100 nM | Cc1cc(-c2ccc(C(F)(F)F)nc2)cc2c3c(N)ncnc3n(CC(=O)N3[C@@H]4C[C@@H]4C[C@H]3C(=O)Nc3cccc(Br)n3)c12 [Compound 356c, (1R,3S,5R)-2-(2-(4-amino-8-methyl-6-(6-(trifluoromethyl)pyridin-3-yl)-9H-pyrimido[4,5-b]indol-9-yl)acetyl)-N-(6-bromopyridin-2-yl)-2-azabicyclo[3.1.0]hexane-3-carboxamide]
17 | < 100 nM | Cc1cc(-c2ccco2)cc2c3c(N)ncnc3n(CC(=O)N3[C@@H]4C[C@@H]4C[C@H]3C(=O)Nc3cccc(Br)n3)c12 [Compound 370a, (1R,3S,5R)-2-(2-(4-amino-6-(furan-2-yl)-8-methyl-9H-pyrimido[4,5-b]indol-9-yl)acetyl)-N-(6-bromopyridin-2-yl)-2-azabicyclo[3.1.0]hexane-3-carboxamide]
18 | < 100 nM | Nc1ncnc2c1c1cc(F)c(F)cc1n2CC(=O)N1[C@@H]2C[C@@H]2C[C@H]1C(=O)Nc1cccc(Br)n1 [Compound 386g, (1R,3S,5R)-2-(2-(4-amino-6,7-difluoro-9H-pyrimido[4,5-b]indol-9-yl)acetyl)-N-(6-bromopyridin-2-yl)-2-azabicyclo[3.1.0]hexane-3-carboxamide]
19 | < 100 nM | Cc1nc(C(F)(F)F)cc2c3c(N)ncnc3n(CC(=O)N3[C@H](C(=O)Nc4cccc(Cl)n4)C[C@@]4(C)C[C@@H]34)c12 [Compound 351a, (1R,3S,5R)-2-(2-(4-amino-8-methyl-6-(trifluoromethyl)-9H-pyrido[4′,3′:4,5]pyrrolo[2,3-d]pyrimidin-9-yl)acetyl)-N-(6-chloropyridin-2-yl)-5-methyl-2-azabicyclo[3.1.0]hexane-3-carboxamide]
20 | < 100 nM | Cc1ccc2c(n1)c1c(N)ncnc1n2CC(=O)N1[C@H](C(=O)Nc2cccc(Br)n2)C[C@@]2(C)C[C@@H]12 [Compound 286a, (1R,3S,5R)-2-(2-(4-amino-6-methyl-9H-pyrido[2′,3′:4,5]pyrrolo[2,3-d]pyrimidin-9-yl)acetyl)-N-(6-bromopyridin-2-yl)-5-methyl-2-azabicyclo[3.1.0]hexane-3-carboxamide]
21 | < 100 nM | Cc1cc(C(F)(F)F)cc2c3c(N)ncnc3n(CC(=O)N3CCC[C@H]3C(=O)Nc3cccc(Br)n3)c12 [Compound 306a, (S)-1-(2-(4-amino-8-methyl-6-(trifluoromethyl)-9H-pyrimido[4,5-b]indol-9-yl)acetyl)-N-(6-bromopyridin-2-yl)pyrrolidine-2-carboxamide]
22 | < 100 nM | Cc1ccnc2c3c(N)ncnc3n(CC(=O)N3[C@@H]4C[C@@H]4C[C@H]3C(=O)Nc3cccc(Br)n3)c12 [Compound 284a, (1R,3S,5R)-2-(2-(4-amino-8-methyl-9H-pyrido[2′,3′:4,5]pyrrolo[2,3-d]pyrimidin-9-yl)acetyl)-N-(6-bromopyridin-2-yl)-2-azabicyclo[3.1.0]hexane-3-carboxamide]
23 | < 100 nM | CNC(=O)Nc1ccc2c(c1)c1c(N)ncnc1n2CC(=O)N1[C@@H]2C[C@@H]2C[C@H]1C(=O)Nc1cccc(Br)n1 [Compound 297d, (1R,3S,5R)-2-(2-(4-amino-6-(3-methylureido)-9H-pyrimido[4,5-b]indol-9-yl)acetyl)-N-(6-bromopyridin-2-yl)-2-azabicyclo[3.1.0]hexane-3-carboxamide]
24 | < 100 nM | Cc1cc2c(cc1Br)c1c(N)ncnc1n2CC(=O)N1[C@H](C(=O)Nc2cccc(Br)n2)C[C@@]2(C)C[C@@H]12 [Compound 380a, (1R,3S,5R)-2-(2-(4-amino-6-bromo-7-methyl-9H-pyrimido[4,5-b]indol-9-yl)acetyl)-N-(6-bromopyridin-2-yl)-5-methyl-2-azabicyclo[3.1.0]hexane-3-carboxamide]
25 | < 100 nM | COC(=O)c1cc(C)c2c(c1)c1c(N)ncnc1n2CC(=O)N1[C@H](C(=O)Nc2cccc(Br)n2)C[C@@]2(C)C[C@@H]12 [Compound 216g, methyl 4-amino-9-(2-((1R,3S,5R)-3-((6-bromopyridin-2-yl)carbamoyl)-5-methyl-2-azabicyclo[3.1.0]hexan-2-yl)-2-oxoethyl)-8-methyl-9H-pyrimido[4,5-b]indole-6-carboxylate]
26 | < 100 nM | Nc1ncnc2c1cc1n2C(C(=O)N2[C@@H](C(=O)Nc3cccc(Br)n3)C[C@@H]3C[C@@H]32)Oc2ccccc2-1 (single isomer, unassigned) [Compound 293b]
